The record followed here is PubChem BioAssay AID1996.

≈ marks a conversion by molar mass, not a printed value.

The conditions of this data set: buffer; pH 7.4; 200.0 µM.
Consider `CCCCCCCCOc1ccc(C2CC(=O)NC2=O)cc1` (configuration not stated), for which the solubility (kinetic) (as a rule, solubility judged after dilution from a stock solution rather than from solid) was less than 0.6 µg/mL. Then `O=C(Cn1cc(/C=C\[N+](=O)[O-])c2ccccc21)Nc1ccccc1`, with 2.2 µg/mL (≈ 6.85 µM); and `CN(C1(C)CCS(=O)(=O)C1)S(=O)(=O)c1cccc([N+](=O)[O-])c1` (configuration not stated), with more than 52.3 µg/mL; and `O=C(Nc1ncc(Cc2cccc([N+](=O)[O-])c2)s1)c1ccco1`, with 0.7 µg/mL (≈ 2.13 µM). Then `O=C(O)CC(c1cccc(O)c1)N1Cc2ccccc2C1=O` (configuration not stated), with more than 44.6 µg/mL. `CN1CCN(NC(=O)c2ccc(Cl)s2)CC1` gave a kinetic solubility of more than 39 µg/mL. Then `O=C1Nc2ccccc2C1=Nc1ccc(Cl)cc1`, with 13.5 µg/mL (≈ 52.6 µM). Then `O=C(Nc1cccc(C(=O)NC2CCCCC2)c1)c1ccccc1`, with 2.8 µg/mL (≈ 8.68 µM); and `CCCC(=O)Nc1ccc2c(c1)COC2=O`, with 18.5 µg/mL (≈ 84.4 µM). With `Cc1c(-c2ccccc2)cnc2c(C)cccc12` the figure was less than 0.5 µg/mL; with `Cc1ccccc1OCCC(=O)OCC(=O)NC1CCCCC1`, more than 47.9 µg/mL; with `CCOc1nc2ccccc2cc1C=O`, 6.6 µg/mL (≈ 32.8 µM). On to `COc1ccccc1C(=O)NC1CC(C)(C)NC(C)(C)C1`, for which the kinetic solubility is more than 43.6 µg/mL. Then `O=C(O)C1CCC(N2C(=O)C3C4CCC(C4)C3C2=O)CC1` (configuration not stated), with more than 43.7 µg/mL; and `O=[N+]([O-])c1cc(CN2CCCCCC2)ccc1O`, with 33.3 µg/mL (≈ 133 µM).

In the case of `Cc1ccc(NC(=O)CNc2cc(S(=O)(=O)N3CCOCC3)ccc2N2CCOCC2)cc1S(=O)(=O)N(C)C`, the kinetic solubility turned out to be 5.3 µg/mL (≈ 9.11 µM). This solubility kinetic is about 6.3-fold lower than that of the compound before. Then `CCCCOC(=O)c1ccc(NC(=O)C(=O)NCCN(C)C)cc1`, with 45.7 µg/mL (≈ 136 µM); and `CC1CCN(c2ccc(C=O)o2)CC1`, with more than 29 µg/mL; and `COc1ccc(CCN2Cc3c(N)cccc3C2=O)cc1OC`, with more than 46.9 µg/mL. With `COC(=O)c1nc2ccccn2c1F` the figure was more than 29.1 µg/mL.

As to `Cc1ccc(CNc2nc3ccccc3n2C)cc1`, the kinetic solubility is more than 37.7 µg/mL.

The compound `COc1ccc(CONc2ncnc3nonc23)cc1[N+](=O)[O-]` registered a solubility (kinetic) of more than 47.7 µg/mL. Then `CN(CC1CCCN(CCc2ccc(F)cc2)C1)C(=O)CCC(F)(F)F` (configuration not stated), with 48.5 µg/mL (≈ 130 µM); and `Cn1c(SCc2ccccc2)nc(N)c(N=O)c1=O`, with 13.6 µg/mL (≈ 49.2 µM). With `O=C(CSc1ncccn1)N1CCCc2ccccc21` the figure was more than 42.8 µg/mL; with `Cc1c[n+](CC(=O)c2ccccc2)cs1.[Br-]`, 44.3 µg/mL; with `COc1ccc(C(=O)Cn2cnc3ccccc3c2=O)cc1OC`, 42.3 µg/mL (≈ 130 µM). Then `Cc1cccc(NC(=O)CSc2cccc3cccnc23)c1C`, with 3.7 µg/mL (≈ 11.5 µM). With `COc1ccc(NS(=O)(=O)c2cn(C)c(=O)n(C)c2=O)cc1`, the solubility (kinetic) is more than 48.8 µg/mL. `CCc1ccc(C(=O)Nc2ccc3c(c2)n(C)c(=O)n3C)cc1`: the kinetic solubility was found to be 5.6 µg/mL (≈ 18.1 µM). Then `Cc1cc(C)c(C)c(S(=O)(=O)NCc2ccc(C(=O)N3CCN(C)CC3)cc2)c1C`, with more than 64.4 µg/mL.

Compound `CC(=O)c1c(-c2ccccc2)[nH]c2ccccc12` showed a solubility (kinetic) of 1.4 µg/mL (≈ 5.95 µM). With `Cc1ccccc1C(=O)N1CCC(C(=O)NC2CCCCCC2)CC1` the figure was 48.6 µg/mL (≈ 142 µM). Then `Cc1cnc(=O)[nH]c1SCC(=O)Nc1nccs1`, with 31 µg/mL (≈ 110 µM). With `Cc1cnc(NC(=O)Cc2ccc(C)c(C)c2)s1` the figure was 2 µg/mL (≈ 7.68 µM). Compound `COc1ccc(CCC(=O)Nc2nccs2)cc1OC` gave a solubility (kinetic) of more than 43.9 µg/mL. With `CCc1nc2ccc(C(=O)N3CCN(CC)CC3)cc2nc1CC` the figure was 48.6 µg/mL (≈ 149 µM).

Consider `Cc1ccc(NP(=O)(c2ccccc2)c2nc3ccccc3s2)cc1` (configuration not stated), for which the kinetic solubility turned out to be 2.2 µg/mL (≈ 6.04 µM). `O=C(CCOc1ccccc1)N1CCN(c2ccc(O)cc2)CC1` had a solubility (kinetic) of more than 49 µg/mL.

Take `O=C(Cc1ccc(Cl)c(Cl)c1)Nc1cccnc1`: the solubility (kinetic) is more than 42.2 µg/mL. Consider `CCOC(=O)C1CCN(C(=O)COC(=O)CNC(=O)c2ccc(C(C)(C)C)cc2)CC1`, for which the solubility (kinetic) was more than 64.9 µg/mL. Then `CCC1CCCCN1C(=O)/C=C/c1ccc2c(c1)OCO2` (configuration not stated), with more than 43.1 µg/mL. Then `O=C(O)c1cccnc1SCc1cccc(Cl)c1`, with 41.5 µg/mL (≈ 148 µM). With `O=C(CCc1ccccc1)NCCc1cccs1` the figure was more than 38.9 µg/mL; with `Cc1cc(NC(=O)CN2CCN(C)CC2)no1`, 22.4 µg/mL (≈ 94 µM).

`CC(C)(C)c1ccc(NC(=O)COC(=O)C2CCCC2)cc1`: the solubility (kinetic) came to 13.5 µg/mL (≈ 44.5 µM). For `CC(=O)Nc1cccc(C(=O)Nc2nc(C)cs2)c1`, the kinetic solubility amounted to 37.4 µg/mL (≈ 136 µM). Then `CC1CCCN(Cc2nc(Cc3ccccc3Cl)no2)C1` (configuration not stated), with 27 µg/mL (≈ 88.3 µM); and `O=C(c1cnccn1)N1CCN(S(=O)(=O)c2cccc(Cl)c2)CC1`, with more than 55 µg/mL.

In turn, `CC1Cc2ccccc2N1C(=O)COc1ccc2c(c1)OCO2` (configuration not stated) yielded a solubility (kinetic) of 43.1 µg/mL (≈ 138 µM).

`COc1ccc(CNc2nc3ccc(C)cc3s2)c(OC)c1OC` came in with a solubility (kinetic) of 15.1 µg/mL (≈ 43.8 µM). Compound `COc1ccc(NC(=O)COC(=O)C(NC(=O)c2ccc(C)cc2)C(C)C)cn1` (configuration not stated) yielded a solubility (kinetic) of 57.9 µg/mL (≈ 145 µM). Compared with the last compound, the solubility kinetic is about 3.8-fold higher.
